Measurements as given in ChEMBL document CHEMBL1124467, “The binding of benzenesulfonamides to carbonic anhydrase enzyme. A molecular mechanics study and quantitative structure-activity relationships” (J Med Chem, 1989).

Key:
[1] = molecular target: T1, Carbonic anhydrase (Bos taurus) (UniProt P00921+Q95323+P18915+Q3SZX4)
Description: Inhibitory activity against bovine Carbonic anhydrase

Bos taurus = organism: Bos taurus; test: Inhibitory activity against bovine erythrocyte B enzyme
[2] = molecular target: T1, Carbonic anhydrase (Bos taurus); test: Inhibitory activity against Carbonic anhydrase; assay type: protein assay

| Structure (SMILES) | Log II50 [1] | further results |
| --- | --- | --- |
| NS(=O)(=O)c1ccc(Cl)cc1 | 1.08 |  |
| Cc1ccc(S(N)(=O)=O)cc1 | 0.78 |  |
| CC(=O)Nc1ccc(S(N)(=O)=O)cc1 | 1.48 |  |
| NS(=O)(=O)c1cccc([N+](=O)[O-])c1 | 1.25 |  |
| Cc1ccccc1S(N)(=O)=O | 0.16 |  |
| COc1ccc(S(N)(=O)=O)cc1 | 0.71 |  |
| CC(=O)c1ccc(S(N)(=O)=O)cc1 |  | Log II50 (Bos taurus): 1.32 |
| NS(=O)(=O)c1ccc(Cl)c([N+](=O)[O-])c1 |  | Log II50 [2]: 2.13 |
| NS(=O)(=O)c1cccc(Cl)c1 |  | Log II50 (Bos taurus): 1 |
| NS(=O)(=O)c1ccccc1Cl |  | Log II50 (Bos taurus): 0.88 |
| Cc1cccc(S(N)(=O)=O)c1 | 0.66 |  |
| Cc1ccc(S(N)(=O)=O)cc1C | 0.48 |  |
| NS(=O)(=O)c1ccccc1 | 0.58 |  |
| NS(=O)(=O)c1ccc([N+](=O)[O-])c(Cl)c1 | 1.74 |  |
| NS(=O)(=O)c1ccc(Cl)c(Cl)c1 | 1.76 |  |
| CNc1ccc(S(N)(=O)=O)cc1 | 0.18 |  |
